These results are taken from US20120165319A1, “INHIBITORS OF INTERLEUKIN-1 BETA CONVERTING ENZYME” (VERTEX PHARMACEUTICALS INCORPORATED, priority 1995, published 2012).

Molecules are shown by their SMILES.

For the first experiment, the target named is T1, ICE (Homo sapiens, UniProt P29466).
T1 sequence (P29466 120-297 limits assumed): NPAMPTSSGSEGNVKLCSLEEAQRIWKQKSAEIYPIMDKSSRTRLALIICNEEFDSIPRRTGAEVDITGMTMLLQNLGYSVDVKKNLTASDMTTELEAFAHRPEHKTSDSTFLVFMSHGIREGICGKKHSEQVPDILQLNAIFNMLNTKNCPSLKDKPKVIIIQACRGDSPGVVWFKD
T1 sequence (P29466 317-404 limits assumed): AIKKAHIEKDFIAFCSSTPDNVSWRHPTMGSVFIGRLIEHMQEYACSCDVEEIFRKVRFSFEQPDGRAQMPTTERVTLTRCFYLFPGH
As to the kind of experiment: Enzyme assay with UV-visible substrate (visible ICE assay, Succinyl-Tyr-Val-Ala-Asp-pNitroanilide). Format: biochemical. As to conditions: Table 5. Here is the method: 1. Enzyme Assay with Uv-Visible Substrate
This assay is run using an Succinyl-Tyr-Val-Ala-Asp-pNitroanilide substrate. Synthesis of analogous substrates is described by L. A. Reiter (Int. J. Peptide Protein Res. 12, 87-96 (1994)). The assay mixture contains:
The visible ICE assay is run in a 96-well microtiter plate. Buffer, ICE and DMSO (if inhibitor is present) are added to the wells in the order listed. The components are left to incubate at room temperature for 15 minutes starting at the time that all components are present in all wells. The microtiter plate reader is set to incubate at 37° C. After the 15 minute incubation, substrate is added directly to the wells and the reaction is monitored by following the release of the chromophore (pNA) at 405-603 nm at 37° C. for 20 minutes. A linear fit of the data is performed and the rate is calculated in mOD/min. DMSO is only present during experiments involving inhibitors, buffer is used to make up the volume to 100 μl in the other experiments.
For determination of enzyme inhibition constants (Ki) or the mode of inhibition (competitive, uncompetitive or noncompetitive), the rate data determined in the enzyme assays at varying inhibitor concentrations are computer-fit to standard enzyme kinetic equations (see I. H. Segel, Enzyme Kinetics, Wiley-Interscience, 1975).
A word on the Ki: it is the equilibrium dissociation constant of an inhibitor or competing ligand from its target. High values mean a looser hold on the target, low ones a stronger hold on the target. On to `C[S+](CC(=O)[C@H](CC(=O)O)NC(=O)[C@@H]1CCCN2C(=O)CC[C@H](NC(=O)c3ccccc3)C(=O)N12)Cc1ccccc1Cl` (some centres unmarked) [Compound 281], for which the inhibition constant (Ki) worked out at 50 nM. In turn, `CC(=O)N1C[C@H](NC(=O)c2sc(C)nc2C)C(=O)N(CC(=O)N[C@H](C=O)CC(=O)O)c2ccccc21` [Compound 625] had an inhibition constant (Ki) of 105 nM.

As to `O=C[C@H](CC(=O)O)NC(=O)[C@@H]1CCCN2C(=O)CC[C@H](NC(=O)/C=C/c3ccncc3)C(=O)N12` [Compound 472], the Ki was found to be 140 nM. `CC(=O)N1C[C@H](NC(=O)O[C@H]2CCOC2)C(=O)N(CC(=O)N[C@H](C=O)CC(=O)O)c2ccccc21` [Compound 634] showed a Ki of 1400 nM. For the molecule `CC(=O)N1C[C@H](NC(=O)/C=C/c2ccccc2)C(=O)N(CC(=O)N[C@H](C=O)CC(=O)O)c2ccccc21` [Compound 632], affinity was put at a Ki of 148 nM. For `N[C@H]1CCC(=O)N2CCC[C@@H](C(=O)N[C@H](C=O)CC(=O)O)N2C1=O` [Compound 429], the Ki was determined as 7000 nM. On the same count and under the same terms, the value for `O=C[C@H](CC(=O)O)NC(=O)[C@@H]1CCCN2C(=O)CC[C@H](NC(=O)Cc3ccccc3)C(=O)N12` [Compound 495] was 43 nM; that for `CC(=O)N1C[C@H](NC(=O)c2ccc3ccccc3n2)C(=O)N(CC(=O)N[C@H](C=O)CC(=O)O)c2ccccc21` [Compound 619] was 300 nM. Same read-out and setting: the figure for `CC(=O)N1C[C@H](NS(=O)(=O)c2ccccc2)C(=O)N(CC(=O)N[C@H](C=O)CC(=O)O)c2ccccc21` [Compound 629] is 230 nM. Still for that read-out and setting: the value for `CC(=O)N1C[C@H](NC(=O)c2ccsc2)C(=O)N(CC(=O)N[C@H](C=O)CC(=O)O)c2ccccc21` [Compound 624] was 300 nM. In turn, `CN(C)S(=O)(=O)N[C@H]1CCC(=O)N2CCC[C@@H](C(=O)N[C@H](C=O)CC(=O)O)N2C1=O` [Compound 428] showed a Ki of 280 nM.

`CC(=O)N1C[C@H](NC(=O)c2ccc3cc(OC(=O)c4ccc5cc(O)ccc5c4)ccc3c2)C(=O)N(CC(=O)N[C@H](C=O)CC(=O)O)c2ccccc21` [Compound 623] returned a Ki of 9 nM. Same read-out and setting: the figure for `CC(=O)c1ccc(C(=O)N[C@H]2CCC(=O)N3CCC[C@@H](C(=O)N[C@H](C=O)CC(=O)O)N3C2=O)cc1` [Compound 474] is 85 nM; for `CC(=O)N1C[C@H](NS(=O)(=O)Cc2ccccc2)C(=O)N(CC(=O)N[C@H](C=O)CC(=O)O)c2ccccc21` [Compound 631] it is 805 nM; for `O=C[C@H](CC(=O)O)NC(=O)CN1C(=O)[C@@H](NC(=O)c2ccccc2)CN(C(=O)OC2CCOC2)c2ccccc21` (some centres unmarked) [Compound 605q] it is 1000 nM. Molecule `NS(=O)(=O)c1ccc(C(=O)N[C@H]2CCC(=O)N3CCC[C@@H](C(=O)N[C@H](C=O)CC(=O)O)N3C2=O)cc1` [Compound 478] came in with an inhibitory constant (Ki) of 380 nM. Consider `Cc1cccc(CC(=O)N2C[C@H](NC(=O)c3ccccc3)C(=O)N(CC(=O)N[C@H](C=O)CC(=O)O)c3ccccc32)c1` [Compound 605t, (3S)-3-[(3S)-2-Oxo-3-benzoylamino-5-(3-methylphenylacetyl)-2,3,4,5-tetrahydro-1H-1,5-benzodiazepin-1-acetylamino]-4-oxo-butyric acid], for which the Ki is 33 nM. `CC(=O)N1C[C@H](NC(=O)c2cccc(O)c2C)C(=O)N(CC(=O)N[C@H](C=O)CC(=O)O)c2ccccc21` [Compound 626] registered a Ki of 260 nM.

Staying with this experiment, now noted: Table 17.
`CC(=O)N1C[C@H](NC(=O)/C=C/c2ccc(Cl)c(Cl)c2)C(=O)N(CC(=O)N[C@H](C=O)CC(=O)O)c2ccccc21` [Compound 700] returned an inhibitory constant (Ki) of 275 nM. Same read-out and setting: the figure for `CC(=O)NCC(=O)N1C[C@H](NC(=O)c2cccc3ccccc23)C(=O)N(CC(=O)N[C@H](C=O)CC(=O)O)c2ccccc21` [Compound 645, (3S)-3-[(3S)-2-Oxo-3-(1-naphthoyl)amino-5-(2-acetamido)acetyl-2,3,4,5-tetrahydro-1H-1,5-benzodiazepine-1-acetylamino]-4-oxo-butyric acid] is 150 nM; for `COc1ccc(C(=O)C(=O)NN2CCC(=O)N3CCC[C@@H](C(=O)N[C@H](C=O)CC(=O)O)N3C2=O)cc1` [Compound 1110] it is 45 nM; for `CC(=O)N1C[C@H](NC(=O)C(=O)Nc2ccc(Cl)cc2)C(=O)N(CC(=O)N[C@H](C=O)CC(=O)O)c2ccccc21` [Compound 710] it is 110 nM.

`CO/N=C/[C@H](CC(=O)O)NC(=O)[C@@H]1CCCN2C(=O)CC[C@H](NC(=O)c3ccc(OC)cc3)C(=O)N12` [Compound 308c, [3S(1S,9S)3-(9-(4-Methoxybenzoyl)amino-6,10-dioxo-1,2,3,4,7,8,9,10-octahydro-6H-pyridazino[1,2-a][1,2]diazepine-1-carboxamido)-amino]-4-oxobutanoic acid, O-methyl oxime] came in with a Ki of 3000 nM. On to `O=C[C@H](CC(=O)O)NC(=O)[C@@H]1CCCN2C(=O)CCN(NC(=O)/C=C/c3ccc(Cl)c(Cl)c3)C(=O)N12` [Compound 1115], for which the affinity corresponds to a Ki of 250 nM. On the same count and under the same terms, the figure for `CC(=O)N1C[C@H](NC(=O)CCc2ccc3c(c2)OCO3)C(=O)N(CC(=O)N[C@H](C=O)CC(=O)O)c2ccccc21` [Compound 707] is 180 nM; for `O=C[C@H](CC(=O)O)NC(=O)[C@@H]1CCCN2C(=O)CCN(NC(=O)/C=C/c3ccc4c(c3)OCO4)C(=O)N12` [Compound 1116] it is 215 nM; for `O=C[C@H](CC(=O)O)NC(=O)[C@@H]1CCCN2C(=O)CCN(NC(=O)CCc3ccc(Cl)cc3)C(=O)N12` [Compound 1113] it is 290 nM. Same read-out and setting: the value for `O=C[C@H](CC(=O)O)NC(=O)[C@@H]1CCCN2C(=O)CCN(NC(=O)C(=O)Nc3ccc(Cl)cc3)C(=O)N12` [Compound 1120] was 95 nM. `O=C[C@H](CC(=O)O)NC(=O)[C@@H]1CCCN2C(=O)CCN(NC(=O)CCc3ccc4c(c3)OCO4)C(=O)N12` [Compound 1114] came in with a Ki of 125 nM. The same measure, in the same setting: the figure for `COc1cc(C(=O)C(=O)NN2CCC(=O)N3CCC[C@@H](C(=O)N[C@H](C=O)CC(=O)O)N3C2=O)cc(OC)c1OC` [Compound 1124] is 270 nM. As to `CC(=O)N1C[C@H](NC(=O)C(=O)c2ccco2)C(=O)N(CC(=O)N[C@H](C=O)CC(=O)O)c2ccccc21` [Compound 711], the Ki turned out to be 175 nM. `O=C[C@H](CC(=O)O)NC(=O)[C@@H]1CCCN2C(=O)CCN(NC(=O)CC3CCCCC3)C(=O)N12` [Compound 1118] came in with an inhibitory constant (Ki) of 380 nM. On the same count and under the same terms, the figure for `O=C[C@H](CC(=O)O)NC(=O)[C@@H]1CCCN2C(=O)CCN(NC(=O)C(=O)c3cccs3)C(=O)N12` [Compound 1107] is 65 nM; for `O=C[C@H](CC(=O)O)NC(=O)[C@@H]1CCCN2C(=O)CCN(NC(=O)Cc3ccc4c(c3)OCO4)C(=O)N12` [Compound 1121] it is 170 nM.

The molecule `COc1ccc(C(=O)N[C@H]2CCC(=O)N3CCC[C@@H](C(=O)N[C@H](/C=N/OCc4ccccc4)CC(=O)O)N3C2=O)cc1` [Compound 308d, [3S(1S,9S)3-(9-(4-Methoxybenzoyl)amino-6,10-dioxo-1,2,3,4,7,8,9,10-octahydro-6H-pyridazino[1,2-a][1,2]diazepine-1-carboxamido)-amino]-4-oxobutanoic acid, O-benzyl oxime] registered a Ki of 3000 nM. The same measure, in the same setting: the value for `Cc1cc(C)c(CC(=O)NN2CCC(=O)N3CCC[C@@H](C(=O)N[C@H](C=O)CC(=O)O)N3C2=O)c(C)c1` [Compound 1122] was 400 nM.

Still in this experiment, the particulars now being: Table 27.
In turn, `COCC(=O)N1C[C@H](NC(=O)c2cc(C)c(O)c(C)c2)C(=O)N(CC(=O)N[C@H](/C=N/OCc2c(Cl)cccc2Cl)CC(=O)O)c2ccccc21` [Compound 688c, (3S)-3-[(3S)-2-Oxo-3-(3,5-dimethyl-4-hydroxybenzoyl)amino-5-methoxyacetyl-2,3,4,5-tetrahydro-1H-1,5-benzodiazepine-1-acetylamino]-4-oxobutyric acid, O-2,6-dichlorobenzyl oxime] had a Ki of 200 nM. The same measure, in the same setting: the figure for `COCC(=O)N1C[C@H](NC(=O)c2nccc3ccccc23)C(=O)N(CC(=O)N[C@H](C=O)CC(=O)O)c2ccccc21` [Compound 699, (3S)-3-[(3S)-2-Oxo-3-isoquinolin-1-oylamino-5-methoxyacetyl-2,3,4,5-tetrahydro-1H-1,5-benzodiazepine-1-acetylamino]-4-oxobutyric acid] is 1.1 nM.

The molecule `CC(=O)O[C@@H](C)C(=O)N1C[C@H](NC(=O)c2cc(C)c(O)c(C)c2)C(=O)N(CC(=O)N[C@H](C=O)CC(=O)O)c2ccccc21` [Compound 726] displayed a Ki of 300 nM.

Regarding `CC(=O)N[C@@H](CCC(=O)O)C(=O)N[C@H]1CN(C(=O)CO)c2ccccc2N(CC(=O)N[C@H](C=O)CC(=O)O)C1=O` [Compound 731], the inhibitory constant (Ki) was found to be 150 nM. On the same count and under the same terms, the figure for `O=C[C@H](CC(=O)O)NC(=O)CN1C(=O)[C@@H](NC(=O)c2nccc3ccccc23)CN(C(=O)CO)c2cc(F)ccc21` [Compound 696-1, (3S)-3-[(3S)-2-oxo-3-isoquinolin-1-oylamino-5-hydroxyacetyl-2,3,4,5-tetrahydro-7-fluoro-1H-1,5-benzodiazepine-1-acetylamino]-4-oxobutyric acid] is 0.5 nM.
